Reference: article PMC11864979, “First-in-class ultralong-target-residence-time p38α inhibitors as a mitosis-targeted therapy for colorectal cancer” (Nature Cancer, 2025)
Like-named read-outs stand apart in the source and are kept apart here.

Legend:
Experiment in all cases: selectivity profiling in a panel of 340 wild-type kinases (Reaction Biology Europe)
Type in all cases: binding
340 wild-type kinases [1] = molecular target: T1, 340 wild-type kinases (Homo sapiens, UniProt Q9UQM7)
T1 construct: purchased Reaction Biology Europe
T1 sequence (Q9UQM7 whole entry): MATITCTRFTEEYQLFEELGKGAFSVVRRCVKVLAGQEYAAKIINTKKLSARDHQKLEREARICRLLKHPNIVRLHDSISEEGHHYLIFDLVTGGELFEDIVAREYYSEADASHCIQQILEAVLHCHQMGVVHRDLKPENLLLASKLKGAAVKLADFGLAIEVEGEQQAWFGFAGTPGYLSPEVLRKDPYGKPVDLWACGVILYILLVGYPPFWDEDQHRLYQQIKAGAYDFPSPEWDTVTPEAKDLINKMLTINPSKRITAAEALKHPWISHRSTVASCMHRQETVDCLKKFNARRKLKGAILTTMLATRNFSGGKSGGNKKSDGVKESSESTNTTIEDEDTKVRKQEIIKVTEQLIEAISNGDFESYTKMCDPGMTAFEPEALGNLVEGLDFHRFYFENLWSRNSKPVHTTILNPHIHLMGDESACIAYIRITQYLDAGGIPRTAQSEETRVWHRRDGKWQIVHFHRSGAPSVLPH

340 wild-type kinases [2] = molecular target: T2, 340 wild-type kinases (Homo sapiens, UniProt P51812)
T2 construct: purchased Reaction Biology Europe
T2 sequence (P51812 whole entry): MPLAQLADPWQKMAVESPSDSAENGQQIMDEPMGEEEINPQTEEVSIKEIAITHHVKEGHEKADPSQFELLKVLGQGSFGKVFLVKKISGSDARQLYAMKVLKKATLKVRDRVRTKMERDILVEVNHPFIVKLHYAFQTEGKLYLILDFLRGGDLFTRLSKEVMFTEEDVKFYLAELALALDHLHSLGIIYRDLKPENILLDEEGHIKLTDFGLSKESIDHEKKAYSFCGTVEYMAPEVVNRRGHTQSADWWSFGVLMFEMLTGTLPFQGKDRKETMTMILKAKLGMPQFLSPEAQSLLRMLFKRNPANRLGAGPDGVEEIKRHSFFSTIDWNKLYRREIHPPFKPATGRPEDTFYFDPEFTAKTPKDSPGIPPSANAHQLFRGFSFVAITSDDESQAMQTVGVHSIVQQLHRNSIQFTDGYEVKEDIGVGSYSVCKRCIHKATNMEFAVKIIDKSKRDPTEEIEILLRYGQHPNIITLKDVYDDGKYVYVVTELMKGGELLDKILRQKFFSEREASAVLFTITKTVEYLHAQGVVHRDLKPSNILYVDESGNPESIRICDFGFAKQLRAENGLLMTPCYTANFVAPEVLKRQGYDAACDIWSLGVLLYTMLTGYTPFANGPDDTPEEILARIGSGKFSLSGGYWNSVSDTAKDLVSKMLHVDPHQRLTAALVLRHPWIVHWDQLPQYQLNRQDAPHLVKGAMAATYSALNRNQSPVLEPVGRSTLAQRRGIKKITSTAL

340 wild-type kinases [3] = molecular target: T3, 340 wild-type kinases (Homo sapiens, UniProt Q96BR1)
T3 construct: purchased Reaction Biology Europe
T3 sequence (Q96BR1 1-496): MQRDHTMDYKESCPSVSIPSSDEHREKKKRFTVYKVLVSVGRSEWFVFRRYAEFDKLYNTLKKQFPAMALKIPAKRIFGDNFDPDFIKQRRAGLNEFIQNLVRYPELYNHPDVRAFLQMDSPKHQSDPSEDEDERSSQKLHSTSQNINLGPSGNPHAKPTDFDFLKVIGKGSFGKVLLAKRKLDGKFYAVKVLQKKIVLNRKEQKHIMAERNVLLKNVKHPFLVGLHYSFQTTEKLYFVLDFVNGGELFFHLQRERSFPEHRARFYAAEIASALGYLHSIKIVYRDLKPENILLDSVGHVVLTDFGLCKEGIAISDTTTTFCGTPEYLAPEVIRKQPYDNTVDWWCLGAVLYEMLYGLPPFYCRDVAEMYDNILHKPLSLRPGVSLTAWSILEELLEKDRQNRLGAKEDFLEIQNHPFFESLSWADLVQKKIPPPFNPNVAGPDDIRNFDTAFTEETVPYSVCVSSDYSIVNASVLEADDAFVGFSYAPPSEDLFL

340 wild-type kinases [4] = molecular target: T4, 340 wild-type kinases (Homo sapiens, UniProt P27361)
T4 construct: purchased Reaction Biology Europe
T4 sequence (P27361 whole entry): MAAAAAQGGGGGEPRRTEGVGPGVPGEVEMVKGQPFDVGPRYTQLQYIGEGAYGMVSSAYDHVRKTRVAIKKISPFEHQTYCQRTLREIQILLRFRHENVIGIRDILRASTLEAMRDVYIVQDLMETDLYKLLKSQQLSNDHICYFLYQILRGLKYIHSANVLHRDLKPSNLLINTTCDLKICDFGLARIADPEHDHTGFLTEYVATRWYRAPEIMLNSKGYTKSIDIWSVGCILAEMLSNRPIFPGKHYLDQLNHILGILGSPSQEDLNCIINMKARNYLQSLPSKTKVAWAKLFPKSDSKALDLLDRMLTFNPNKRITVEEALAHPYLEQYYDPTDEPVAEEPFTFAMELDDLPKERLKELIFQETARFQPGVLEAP

340 wild-type kinases [5] = molecular target: T5, 340 wild-type kinases (Homo sapiens, UniProt P49840)
T5 construct: purchased Reaction Biology Europe
T5 sequence (P49840 whole entry): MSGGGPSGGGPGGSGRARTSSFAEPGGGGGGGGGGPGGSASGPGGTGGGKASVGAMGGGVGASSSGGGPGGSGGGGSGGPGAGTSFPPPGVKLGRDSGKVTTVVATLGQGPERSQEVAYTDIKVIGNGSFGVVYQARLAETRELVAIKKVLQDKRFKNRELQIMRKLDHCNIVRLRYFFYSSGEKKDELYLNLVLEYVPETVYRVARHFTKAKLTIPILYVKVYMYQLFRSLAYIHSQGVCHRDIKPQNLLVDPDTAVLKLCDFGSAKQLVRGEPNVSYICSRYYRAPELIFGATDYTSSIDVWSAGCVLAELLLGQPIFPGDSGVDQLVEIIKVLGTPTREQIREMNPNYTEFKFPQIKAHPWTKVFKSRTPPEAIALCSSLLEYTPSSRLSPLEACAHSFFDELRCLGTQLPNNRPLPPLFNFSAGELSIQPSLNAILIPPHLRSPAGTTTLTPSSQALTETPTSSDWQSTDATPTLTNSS

340 wild-type kinases [6] = molecular target: T6, 340 wild-type kinases (Homo sapiens, UniProt P06241)
T6 construct: purchased Reaction Biology Europe
T6 sequence (P06241 whole entry): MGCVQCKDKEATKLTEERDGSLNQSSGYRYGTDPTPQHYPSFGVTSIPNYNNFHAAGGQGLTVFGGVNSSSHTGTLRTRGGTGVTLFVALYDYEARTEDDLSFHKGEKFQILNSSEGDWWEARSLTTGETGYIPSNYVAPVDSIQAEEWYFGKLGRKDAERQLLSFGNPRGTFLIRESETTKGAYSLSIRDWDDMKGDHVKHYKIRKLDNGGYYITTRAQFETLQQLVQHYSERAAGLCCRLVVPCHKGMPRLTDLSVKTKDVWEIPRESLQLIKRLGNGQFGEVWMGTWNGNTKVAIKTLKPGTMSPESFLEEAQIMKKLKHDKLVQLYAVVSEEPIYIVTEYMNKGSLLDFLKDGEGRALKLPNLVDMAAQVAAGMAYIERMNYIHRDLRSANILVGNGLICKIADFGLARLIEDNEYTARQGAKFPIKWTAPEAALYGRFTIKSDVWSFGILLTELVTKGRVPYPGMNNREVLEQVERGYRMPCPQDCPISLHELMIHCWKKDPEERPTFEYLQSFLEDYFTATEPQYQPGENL

340 wild-type kinases [7] = molecular target: T7, 340 wild-type kinases (Homo sapiens, UniProt P23458)
T7 construct: purchased Reaction Biology Europe
T7 sequence (P23458 whole entry): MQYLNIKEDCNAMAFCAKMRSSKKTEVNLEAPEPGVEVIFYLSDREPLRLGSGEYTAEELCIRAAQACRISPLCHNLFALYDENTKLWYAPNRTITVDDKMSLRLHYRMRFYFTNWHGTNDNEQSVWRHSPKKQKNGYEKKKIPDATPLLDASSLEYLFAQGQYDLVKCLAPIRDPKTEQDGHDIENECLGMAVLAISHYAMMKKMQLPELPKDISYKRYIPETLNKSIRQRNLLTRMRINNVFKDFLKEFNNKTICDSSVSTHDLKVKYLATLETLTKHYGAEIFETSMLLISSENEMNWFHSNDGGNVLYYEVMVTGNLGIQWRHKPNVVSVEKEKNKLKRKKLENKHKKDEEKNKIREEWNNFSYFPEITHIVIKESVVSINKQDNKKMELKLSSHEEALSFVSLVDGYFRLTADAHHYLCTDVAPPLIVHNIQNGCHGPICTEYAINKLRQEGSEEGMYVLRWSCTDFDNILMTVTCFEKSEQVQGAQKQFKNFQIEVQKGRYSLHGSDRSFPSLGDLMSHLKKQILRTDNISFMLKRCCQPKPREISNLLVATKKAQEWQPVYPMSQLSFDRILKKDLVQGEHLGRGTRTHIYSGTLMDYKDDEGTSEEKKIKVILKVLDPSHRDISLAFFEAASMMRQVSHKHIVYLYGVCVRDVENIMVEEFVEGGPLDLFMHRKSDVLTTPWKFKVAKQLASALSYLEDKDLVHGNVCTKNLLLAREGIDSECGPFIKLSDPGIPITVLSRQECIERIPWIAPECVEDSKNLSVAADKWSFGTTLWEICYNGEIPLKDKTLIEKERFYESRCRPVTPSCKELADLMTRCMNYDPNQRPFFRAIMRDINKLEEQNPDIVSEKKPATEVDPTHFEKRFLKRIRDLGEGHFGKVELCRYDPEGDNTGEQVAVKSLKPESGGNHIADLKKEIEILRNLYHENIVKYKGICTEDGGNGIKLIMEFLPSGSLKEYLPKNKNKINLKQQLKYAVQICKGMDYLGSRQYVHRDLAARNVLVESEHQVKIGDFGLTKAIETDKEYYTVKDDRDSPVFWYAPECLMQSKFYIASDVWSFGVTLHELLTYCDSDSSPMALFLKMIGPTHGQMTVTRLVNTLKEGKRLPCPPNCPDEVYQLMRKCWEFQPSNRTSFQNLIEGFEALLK

340 wild-type kinases [8] = molecular target: T8, 340 wild-type kinases (Homo sapiens, UniProt P16234)
T8 construct: purchased Reaction Biology Europe
T8 sequence (P16234 24-1089): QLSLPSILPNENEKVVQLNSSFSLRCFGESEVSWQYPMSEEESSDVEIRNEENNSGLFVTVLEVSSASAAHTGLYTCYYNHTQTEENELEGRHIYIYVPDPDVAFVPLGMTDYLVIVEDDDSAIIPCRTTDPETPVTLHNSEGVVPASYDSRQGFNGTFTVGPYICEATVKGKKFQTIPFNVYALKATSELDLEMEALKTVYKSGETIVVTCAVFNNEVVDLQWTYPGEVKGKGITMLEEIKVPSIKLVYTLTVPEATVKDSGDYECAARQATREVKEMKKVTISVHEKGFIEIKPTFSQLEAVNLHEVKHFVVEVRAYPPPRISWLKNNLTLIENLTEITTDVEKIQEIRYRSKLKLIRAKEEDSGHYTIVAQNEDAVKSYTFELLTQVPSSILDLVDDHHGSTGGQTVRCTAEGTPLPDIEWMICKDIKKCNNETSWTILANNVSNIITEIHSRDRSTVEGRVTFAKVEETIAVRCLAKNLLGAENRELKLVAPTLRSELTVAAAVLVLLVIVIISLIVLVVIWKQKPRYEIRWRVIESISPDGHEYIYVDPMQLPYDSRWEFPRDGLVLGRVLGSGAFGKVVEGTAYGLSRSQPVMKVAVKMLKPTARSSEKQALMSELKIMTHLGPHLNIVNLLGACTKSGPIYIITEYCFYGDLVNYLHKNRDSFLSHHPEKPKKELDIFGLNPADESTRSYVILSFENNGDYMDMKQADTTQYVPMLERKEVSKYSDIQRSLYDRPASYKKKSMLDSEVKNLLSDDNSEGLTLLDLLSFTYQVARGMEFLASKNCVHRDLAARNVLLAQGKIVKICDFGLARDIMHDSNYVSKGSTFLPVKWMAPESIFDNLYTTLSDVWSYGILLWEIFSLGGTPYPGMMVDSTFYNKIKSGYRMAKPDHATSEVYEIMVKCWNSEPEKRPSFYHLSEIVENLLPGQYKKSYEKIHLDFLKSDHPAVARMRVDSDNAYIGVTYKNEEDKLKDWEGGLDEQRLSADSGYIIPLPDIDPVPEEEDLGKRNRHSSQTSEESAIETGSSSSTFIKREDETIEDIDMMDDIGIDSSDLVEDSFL

340 wild-type kinases [9] = molecular target: T9, 340 wild-type kinases (Homo sapiens, UniProt P34947)
T9 construct: purchased Reaction Biology Europe

340 wild-type kinases [10] = molecular target: T10, 340 wild-type kinases (Homo sapiens, UniProt P36896)
T10 construct: purchased Reaction Biology Europe
T10 sequence (P36896 24-505): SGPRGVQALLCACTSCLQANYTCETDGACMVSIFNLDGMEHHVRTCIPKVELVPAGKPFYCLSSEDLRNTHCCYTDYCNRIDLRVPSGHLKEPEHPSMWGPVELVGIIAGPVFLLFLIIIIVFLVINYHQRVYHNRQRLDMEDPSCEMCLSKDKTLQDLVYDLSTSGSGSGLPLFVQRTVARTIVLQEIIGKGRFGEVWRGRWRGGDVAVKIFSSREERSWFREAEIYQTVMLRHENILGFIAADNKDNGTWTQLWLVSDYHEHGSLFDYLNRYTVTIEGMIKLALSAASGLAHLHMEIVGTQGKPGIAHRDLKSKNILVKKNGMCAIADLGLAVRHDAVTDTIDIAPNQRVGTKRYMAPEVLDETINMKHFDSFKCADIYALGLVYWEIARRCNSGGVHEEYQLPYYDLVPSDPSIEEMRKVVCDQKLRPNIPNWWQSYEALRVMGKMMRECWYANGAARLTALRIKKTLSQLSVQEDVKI

340 wild-type kinases [11] = molecular target: T11, 340 wild-type kinases (Homo sapiens, UniProt P42680)
T11 construct: purchased Reaction Biology Europe
T11 sequence (P42680 1-631): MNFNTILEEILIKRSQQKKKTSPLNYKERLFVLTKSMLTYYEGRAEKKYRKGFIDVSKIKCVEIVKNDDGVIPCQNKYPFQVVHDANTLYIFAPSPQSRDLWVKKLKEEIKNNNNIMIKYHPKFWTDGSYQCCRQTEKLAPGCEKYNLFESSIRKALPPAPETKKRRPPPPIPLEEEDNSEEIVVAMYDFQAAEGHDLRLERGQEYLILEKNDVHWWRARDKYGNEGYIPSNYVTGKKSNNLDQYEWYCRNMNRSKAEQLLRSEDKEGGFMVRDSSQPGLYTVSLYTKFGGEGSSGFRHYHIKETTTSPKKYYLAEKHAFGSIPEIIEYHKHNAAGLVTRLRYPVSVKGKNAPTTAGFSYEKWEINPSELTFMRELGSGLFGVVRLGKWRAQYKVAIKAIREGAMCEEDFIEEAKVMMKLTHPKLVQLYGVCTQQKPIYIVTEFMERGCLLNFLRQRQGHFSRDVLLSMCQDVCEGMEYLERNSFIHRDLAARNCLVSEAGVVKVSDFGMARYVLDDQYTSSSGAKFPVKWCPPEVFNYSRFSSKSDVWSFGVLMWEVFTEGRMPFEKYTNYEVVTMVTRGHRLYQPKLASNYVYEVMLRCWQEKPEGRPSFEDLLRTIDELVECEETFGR

CNC(=O)c1ccc2c(c1)C(=O)c1ccc(Nc3ccc(F)c(NC(=O)C4CC4)c3)cc1CC2 [Compound 2015]
remaining activity at 0.2 µM (340 wild-type kinases [1]; 0.2 µM 2015, read-out: CAMK2A residual activity): 102%
remaining activity at 1 µM (340 wild-type kinases [1]; 1 µM 2015, read-out: CAMK2A residual activity): 96.4%
remaining activity at 1 µM (340 wild-type kinases [1]; CAMK2A, 1 µM, read-out: residual activity): 96.4%
remaining activity at 0.2 µM (340 wild-type kinases [2]; 0.2 µM 2015, read-out: RPS6KA3 residual activity): 107%
remaining activity at 1 µM (340 wild-type kinases [2]; 1 µM 2015, read-out: RPS6KA3 residual activity): 103%
remaining activity at 0.2 µM (340 wild-type kinases [2]; RPS6KA3, 0.2 µM, read-out: residual activity): 107%
remaining activity at 1 µM (340 wild-type kinases [2]; RPS6KA3, 1 µM, read-out: residual activity): 103%
remaining activity at 0.2 µM (340 wild-type kinases [3]; 0.2 µM 2015, read-out: SGK3 residual activity): 107%
remaining activity at 1 µM (340 wild-type kinases [3]; 1 µM 2015, read-out: SGK3 residual activity): 92.1%
remaining activity at 0.2 µM (340 wild-type kinases [3]; SGK3, 0.2 µM, read-out: residual activity): 107%
remaining activity at 1 µM (340 wild-type kinases [3]; SGK3, 1 µM, read-out: residual activity): 92%
remaining activity at 1 µM (340 wild-type kinases [4]; 1 µM 2015, read-out: ERK1 residual activity): 104%
remaining activity at 0.2 µM (340 wild-type kinases [4]; ERK1, 0.2 µM, read-out: residual activity): 108%
remaining activity at 1 µM (340 wild-type kinases [4]; ERK1, 1 µM, read-out: residual activity): 104%
remaining activity at 0.2 µM (340 wild-type kinases [5]; 0.2 µM 2015, read-out: GSK3alpha residual activity): 110%
remaining activity at 1 µM (340 wild-type kinases [5]; 1 µM 2015, read-out: GSK3alpha residual activity): 82.6%
remaining activity at 0.2 µM (340 wild-type kinases [5]; GSK3alpha, 0.2 µM, read-out: residual activity): 110%
remaining activity at 1 µM (340 wild-type kinases [5]; GSK3alpha, 1 µM, read-out: residual activity): 82.6%
remaining activity at 0.2 µM (340 wild-type kinases [6]; 0.2 µM 2015, read-out: FYN residual activity): 119%
remaining activity at 1 µM (340 wild-type kinases [6]; 1 µM 2015, read-out: FYN residual activity): 101%
remaining activity at 0.2 µM (340 wild-type kinases [6]; FYN, 0.2 µM, read-out: residual activity): 119%
remaining activity at 1 µM (340 wild-type kinases [6]; FYN, 1 µM, read-out: residual activity): 101%
remaining activity at 0.2 µM (340 wild-type kinases [7]; 0.2 µM 2015, read-out: JAK1 residual activity): 86.7%
remaining activity at 1 µM (340 wild-type kinases [7]; 1 µM 2015, read-out: JAK1 residual activity): 99.8%
remaining activity at 0.2 µM (340 wild-type kinases [7]; JAK1, 0.2 µM, read-out: residual activity): 86.7%
remaining activity at 1 µM (340 wild-type kinases [7]; JAK1, 1 µM, read-out: residual activity): 99.8%
remaining activity at 0.2 µM (340 wild-type kinases [8]; 0.2 µM 2015, read-out: PDGFRalpha residual activity): 102%
remaining activity at 1 µM (340 wild-type kinases [8]; 1 µM 2015, read-out: PDGFRalpha residual activity): 95.4%
remaining activity at 0.2 µM (340 wild-type kinases [8]; PDGFRalpha, 0.2 µM, read-out: residual activity): 102%
remaining activity at 1 µM (340 wild-type kinases [8]; PDGFRalpha, 1 µM, read-out: residual activity): 95.4%
remaining activity at 0.2 µM (340 wild-type kinases [9]; 0.2 µM 2015, read-out: GRK5 residual activity): 106%
remaining activity at 1 µM (340 wild-type kinases [9]; 1 µM 2015, read-out: GRK5 residual activity): 114%
remaining activity at 0.2 µM (340 wild-type kinases [9]; GRK5, 0.2 µM, read-out: residual activity): 106%
remaining activity at 1 µM (340 wild-type kinases [9]; GRK5, 1 µM, read-out: residual activity): 114%
remaining activity at 0.2 µM (340 wild-type kinases [10]; 0.2 µM 2015, read-out: ACVR1B residual activity): 101%
remaining activity at 0.2 µM (340 wild-type kinases [10]; ACVR1B, 0.2 µM, read-out: residual activity): 101%
remaining activity at 1 µM (340 wild-type kinases [10]; ACVR1B, 1 µM, read-out: residual activity): 86.1%
remaining activity at 0.2 µM (340 wild-type kinases [11]; 0.2 µM 2015, read-out: TEC residual activity): 120%
remaining activity at 1 µM (340 wild-type kinases [11]; 1 µM 2015, read-out: TEC residual activity): 108%
remaining activity at 0.2 µM (340 wild-type kinases [11]; TEC, 0.2 µM, read-out: residual activity): 120%
remaining activity at 1 µM (340 wild-type kinases [11]; TEC, 1 µM, read-out: residual activity): 108%
